Results on four compounds are retold here after PMC4865847, “Putative histidine kinase inhibitors with antibacterial effect against multi-drug resistant clinical isolates identified by in vitro and in silico screens” (Scientific Reports, 2016).

As usually defined, the IC50 is the point on the concentration scale where inhibition reaches its midpoint.

≈ marks a conversion by molar mass, not a printed value. Where two headings read alike, the source gives them in different places.

Test [1] deals with T1, HK WalK (DHp and CA domain) (Streptococcus pneumoniae, UniProt Q8DPL8).
T1 construct: WalK (amino acids from 208 to 449); N-terminal His6-3C site of vector pOPINF (own knowledge of the vector); made in house; host or cells: E. coli RIL
Put plainly: Differential scanning fluorimetry (DSF), WalK. The format is binding. The protocol: (§1) To monitor protein unfolding, the fluorescent dye Sypro orange was used[26]. Differential scanning fluorimetry (DSF) experiments were conducted in the iCycleriQ Real Time Detection System (Bio-Rad, Hercules, CA). Solutions of 20 μl of 0.1 mg/ml protein (final concentration), 200 μM fragment cocktails or individual fragments (final concentration), 10X sypro orange (final concentration) and buffer (100 mM TrisCl pH 8, 150 mM NaCl) were added to the wells of the 96-well iCycler iQ PCR plate. The plate was heated from 20 to 85 or 99 °C at a heating rate of 1 °C/min. The fluorescent intensity was measured with Ex/Em: 490/530 nm. Prism GraphPad v.5 was used for curve fitting and statistical analysis.
For orientation: Differential scanning fluorimetry follows unfolding on heating by fluorescence.

The next test deals with T2, S. pneumoniae WalK (Streptococcus pneumoniae, UniProt Q8DPL8).
T2 construct: WalK (amino acids from 208 to 449); N-terminal His6-3C site of vector pOPINF (own knowledge of the vector); made in house; host or cells: E. coli RIL
Put plainly: In vitro autophosphorylation kinase assay with γ-32P-ATP, WalK. It is filed as biochemical. An outline of the steps:
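Histidine kinase (0.12 mg/ml, ≈4 μM) incubated with up to 20 mM fragment in 50 mM Tris HCl pH 8.5, 50 mM KCl, 5 mM MgCl2, 0.5 mM EDTA, 0.1 mM DTT; started with 0.1 μCi/μl γ-32P-ATP (0.03–0.06 μM ATP final). Phosphoprotein quantified by SDS-PAGE and phosphor-imaging, curve-fitted; DMSO controls.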

For the next test, the system named is HK NblS (CA domain). Put plainly: Differential scanning fluorimetry (DSF), NblS. It is filed as binding, Synechococcus sp. PCC 7942. The protocol: as §1
For another test, the system named is Klebsiella pneumoniae. Nature of the test: Antibacterial susceptibility testing (MIC), K. pneumoniae. It is filed as cell-based. The following applies: for MIC: Klebsiella pneumoniae, ATCC700603, strain ATCC 700603; for MIC K. pneumoniae ATCC700603: strain ATCC 700603. The protocol:
(§2) Bacterial strains used in this study for antibacterial susceptibility testing (Table S5) were propagated using standard microbiological procedures. Minimal inhibitory concentrations (MICs) were determined following a standard double-dilution method. MICs were recorded as the lowest concentration of the compound where no visible growth was observed. After plating the dilutions around the MIC or growing them in fresh MH media, minimal bactericidal concentration (MBC) was recorded as the lowest concentration of the compound at which no colonies were formed or no growth was observed, respectively. For S. pneumoniae MICs were determined by adapting the standard double-dilution method to anaerobic conditions and of this microorganism (use of Todd Hewitt Yeast extract with 200 U/mL of catalase and continuous monitoring of growth).

For another test, the target named is T3, E. coli EnvZ (Escherichia coli, UniProt P0AEJ4).
T3 construct: The catalytic portion (DHp and CA domain) of E. coli PhoR (PhoR^E), E. coli EnvZ; made in house; host or cells: E. coli RIL
Nature of the test: Aggregation analysis by native-PAGE, EnvZ. The following applies: 2 mM, 10% DMSO. Here is the method:
E. coli PhoR and EnvZ, and S. aureus PhoR ([…], final concentration) were prepared in kinase buffer. […] DMSO in the assays was maintained to a final concentration 10% (v/v). After 30 min of incubation at room temperature Native polyacrylamide gel electrophoresis (Native-PAGE) loading buffer was added and samples loaded. Coomassie blue staining was used for protein visualization.

Test [2] relates to Staphylococcus epidermidis. Nature of the test: Antibacterial susceptibility testing (MIC/MBC), S. epidermidis. It is filed as cell-based. The following applies: for MBC / MIC: Staphylococcus epidermidis; for MIC S. epidermidis DSM 20044 / bacteriostatic or bactericidal for S. epidermidis DSM 20044: strain DSM 20044. The protocol: Minimal inhibitory concentrations (MICs) were determined following a standard double-dilution method. […] For S. pneumoniae MICs were determined by adapting the standard double-dilution method to anaerobic conditions and of this microorganism (use of Todd Hewitt Yeast extract with 200 U/mL of catalase and continuous monitoring of growth).

In another test the test system is NCI-60 tumor cell lines. The arrangement: method as in PMID 11121759. The following applies: 2.72 μg/ml (10 μM), one dose; maximum over cell lines; cited from earlier work.
The next test deals with Gram positive strains. Put plainly: Antibacterial susceptibility testing, Gram positive strains (summary). It is filed as cell-based. The protocol: as §2
Another test relates to Gram negative strains. Put plainly: Antibacterial susceptibility testing, Gram negative strains (summary). It is filed as cell-based. The following applies: read-out: MIC Gram negative. The protocol: as §2
[3] abbreviates: DSM20044, strain DSM 20044, read-out: MIC S. epidermidis DSM 20044.
The mark [4] stands for this setting: clinical isolate T7/3, read-out: MIC S. epidermidis T7/3.
Where [5] appears, read: clinical isolate T37/8, read-out: MIC S. epidermidis T37/8.
Where [6] appears, read: clinical isolate T6119, read-out: MIC S. epidermidis T6119.
Where [7] appears, read: strain RP62A (biofilm producer), read-out: MIC S. epidermidis RP62A.
[8] abbreviates: strain RP62A/1 (non-biofilm producer), read-out: MIC S. epidermidis RP62A/1.
The mark [9] stands for this setting: summary over clinical isolates, read-out: MICs for S. epidermidis clinical isolates.

T2 sequence (Q8DPL8 208-449): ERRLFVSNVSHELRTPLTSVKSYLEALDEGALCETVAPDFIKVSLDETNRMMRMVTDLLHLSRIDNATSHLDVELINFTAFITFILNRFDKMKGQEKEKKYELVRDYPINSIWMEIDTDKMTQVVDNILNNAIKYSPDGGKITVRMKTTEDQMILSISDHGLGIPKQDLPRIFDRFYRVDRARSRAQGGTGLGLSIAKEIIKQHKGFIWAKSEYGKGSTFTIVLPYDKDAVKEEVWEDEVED
T1 sequence (Q8DPL8 208-449): as above
T3 sequence (P0AEJ4 240-440): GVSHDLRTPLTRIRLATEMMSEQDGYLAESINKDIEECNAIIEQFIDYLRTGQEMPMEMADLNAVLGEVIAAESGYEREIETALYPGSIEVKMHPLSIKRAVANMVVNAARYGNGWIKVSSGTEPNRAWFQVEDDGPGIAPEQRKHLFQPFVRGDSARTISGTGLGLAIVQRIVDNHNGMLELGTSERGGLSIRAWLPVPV

As for `Nc1nc(-c2ccc(Br)cc2)cs1` [F1, 4-(4-bromophenyl)-1,3-thiazol-2-amine], in [1], the “increase of WalK Tm” value came out at 4.5 °C. The IC50 at S. pneumoniae WalK (autophosphorylation, one time point (30 sec), 10% DMSO, read-out: IC50 WalK) was greater than 2000 µM. The “inhibitory capacity for WalK autophosphorylation activity” value at S. pneumoniae WalK (single concentration 5 mM, 30 sec) was “weak inhibitory capacity”. For the same compound, in the test with HK NblS (CA domain), the “increase of NblS Tm” value is 2.1 °C. The MIC with Klebsiella pneumoniae is greater than 500 µg/mL; in [2] (setting [3]), 4 µg/mL (≈ 15.7 µM); in [2] (setting [4]) it was 63 µg/mL (≈ 247 µM); in [2] (setting [5]), greater than 500 µg/mL; in test [2] (setting [6]) it was greater than 500 µg/mL; in [2] (setting [7]), greater than 500 µg/mL. Further, the figures for the MIC in test [2] (setting [8]) and in test [2] (setting [9]) were 250 µg/mL (≈ 980 µM) and 63 µg/mL (≈ 247 µM), respectively. Further, the “HK aggregation, EnvZ” value on E. coli EnvZ was “do not cause HK aggregation”. The compound further came in with an MBC in test [2] (DSM20044, strain DSM 20044) of 250 µg/mL (≈ 980 µM).
In the case of `CC(=O)Nc1cccc(-c2ccccc2Cl)c1` [S1.7, N-[3-(2-chlorophenyl)phenyl]acetamide], the MIC (in the test on Klebsiella pneumoniae; in test [2] (setting [3]); in test [2] (setting [4]); in test [2] (setting [5]); in [2] (setting [6]); in [2] (setting [7])) was greater than 500 µg/mL in each case. For the same compound, the MIC in [2] (setting [8]) was greater than 500 µg/mL. In the test with Klebsiella pneumoniae, the “MIC K. pneumoniae ATCC700603” value was greater than 500 µg/mL.
Turning to `CC[C@H](c1ccc(O)cc1)[C@@H](CC)c1ccc(F)cc1` [S1.13, 4-[(3S,4R)-4-(4-fluorophenyl)hexan-3-yl]phenol], the MIC with Klebsiella pneumoniae is greater than 500 µg/mL; with Gram positive strains (summary over Gram positive strains) it was no less than 8 µg/mL; with Gram negative strains, greater than 500 µg/mL; in test [2] (setting [3]) it was 1 µg/mL (≈ 3.67 µM); in test [2] (setting [4]), 8 µg/mL (≈ 29.4 µM); in test [2] (setting [5]) it was 16 µg/mL (≈ 58.7 µM). For the same compound, the MIC was 8 µg/mL (≈ 29.4 µM) in test [2] (setting [6]), 8 µg/mL (≈ 29.4 µM) in test [2] (setting [7]), 8 µg/mL (≈ 29.4 µM) in [2] (setting [8]) and 8 to 16 µg/mL (≈ 29.4 to 58.7 µM) in test [2] (setting [9]). Moreover, the “MIC K. pneumoniae ATCC700603” value with Klebsiella pneumoniae was greater than 500 µg/mL. For the same compound, in the test with NCI-60 tumor cell lines, the “growth inhibition of NCI-60 cell lines” value is reported as no more than 19%. In addition, the MBC in the test on Gram positive strains (Staphylococcus aureus, MRSA, summary, read-out: MBCs against Gram-positives, including multi-drug resistant MRSA) was no more than 16 µg/mL; in test [2] (DSM20044, strain DSM 20044), 8 µg/mL (≈ 29.4 µM). Further, the “MIC S. epidermidis DSM 20044” value in test [2] is 1^¥ μg/ml. In addition, the “bacteriostatic or bactericidal for S. epidermidis DSM 20044” value in [2] is recorded as “bactericidal”.
On to `CC(C)(C)c1ccc(O)c(CNc2ccccc2)c1` [S1.14, 4-tert-butyl-2-[(phenylamino)methyl]phenol], for which the MIC in the test on Klebsiella pneumoniae was greater than 500 µg/mL; in test [2] (setting [3]) it was 500 µg/mL (≈ 1960 µM); in [2] (setting [4]), 250 µg/mL (≈ 979 µM); in test [2] (setting [5]), 500 µg/mL (≈ 1960 µM); in test [2] (setting [6]), 500 µg/mL (≈ 1960 µM); in test [2] (setting [7]), greater than 500 µg/mL. Besides, the MIC was 500 µg/mL (≈ 1960 µM) in test [2] (setting [8]) and 250 to 500 µg/mL (≈ 979 to 1960 µM) in [2] (summary over strains, read-out: MICs for the S. epidermidis strains). Besides, the “MIC K. pneumoniae ATCC700603” value with Klebsiella pneumoniae was greater than 500 µg/mL. The MBC in [2] (DSM20044, strain DSM 20044) turned out to be 500 µg/mL (≈ 1960 µM). In addition, the “MIC S. epidermidis DSM 20044” value in [2] is 500^¶ μg/ml. For the same compound, the “bacteriostatic or bactericidal for S. epidermidis DSM 20044” value in test [2] was “bactericidal”.
